# Laboratory results as given in patent US20090111811A1, “1,2,4-TRIAZOLE CARBOXYLIC ACID DERIVATIVES AS MODULATORS OF MGLUR5” (AstraZeneca AB, priority 2007, published 2009).
# Columns and labels:
# [1] = Determination of brain to plasma ratio in rat; type: in vivo; details: brain and plasma, female Sprague Dawley rats, read-out: Brain/Plasma Ratio of compound in Rat
# Method: Brain to plasma ratios are estimated in female Sprague Dawley rats. The compound is dissolved in water or another appropriate vehicle. For determination of brain to plasma ratio the compound is administrated as a subcutaneous, or an intravenous bolus injection, or an intravenous infusion, or an oral administration. At a predetermined time point after the administration a blood sample is taken with cardiac puncture. The rat is terminated by cutting the heart open, and the brain is immediately retained. The blood samples are collected in heparinized tubes and centrifuged within 30 minutes, in order to separate the plasma from the blood cells. The plasma is transferred to 96-well plates and stored at −20° C. until analysis. The brains are divided in half, and each half is placed in a pre-tarred tube and stored at −20° C. until analysis. Prior to the analysis, the brain samples are thawed and 3 mL/g brain tissue of distilled water is added to the tubes. The brain samples are sonicated in an ice bath until the samples are homogenized. Both brain and plasma samples are precipitated with acetonitrile. After centrifugation, the supernatant is diluted with 0.2% formic acid. […] After reconstitution of the residuals the samples are ready for injection onto the HPLC column.
# human mGluR5d = molecular target: T1, human mGluR5d (Homo sapiens, UniProt P41594); test: FLIPR assay, functional assessment of mGluR5 antagonism (intracellular calcium mobilization); type: cell-based; details: cells expressing human mGluR5d; IC50 determination; read-out: FLIPR hmGluR5d
# T1 construct: expressed in transfected cells; The cells are kept under Hygromycin B and Zeocin selection; The separate IP3 assay names GHEK cells stably expressing human mGluR5d
# T1 sequence (P41594 21-942 isoform P41594-3 limits assumed): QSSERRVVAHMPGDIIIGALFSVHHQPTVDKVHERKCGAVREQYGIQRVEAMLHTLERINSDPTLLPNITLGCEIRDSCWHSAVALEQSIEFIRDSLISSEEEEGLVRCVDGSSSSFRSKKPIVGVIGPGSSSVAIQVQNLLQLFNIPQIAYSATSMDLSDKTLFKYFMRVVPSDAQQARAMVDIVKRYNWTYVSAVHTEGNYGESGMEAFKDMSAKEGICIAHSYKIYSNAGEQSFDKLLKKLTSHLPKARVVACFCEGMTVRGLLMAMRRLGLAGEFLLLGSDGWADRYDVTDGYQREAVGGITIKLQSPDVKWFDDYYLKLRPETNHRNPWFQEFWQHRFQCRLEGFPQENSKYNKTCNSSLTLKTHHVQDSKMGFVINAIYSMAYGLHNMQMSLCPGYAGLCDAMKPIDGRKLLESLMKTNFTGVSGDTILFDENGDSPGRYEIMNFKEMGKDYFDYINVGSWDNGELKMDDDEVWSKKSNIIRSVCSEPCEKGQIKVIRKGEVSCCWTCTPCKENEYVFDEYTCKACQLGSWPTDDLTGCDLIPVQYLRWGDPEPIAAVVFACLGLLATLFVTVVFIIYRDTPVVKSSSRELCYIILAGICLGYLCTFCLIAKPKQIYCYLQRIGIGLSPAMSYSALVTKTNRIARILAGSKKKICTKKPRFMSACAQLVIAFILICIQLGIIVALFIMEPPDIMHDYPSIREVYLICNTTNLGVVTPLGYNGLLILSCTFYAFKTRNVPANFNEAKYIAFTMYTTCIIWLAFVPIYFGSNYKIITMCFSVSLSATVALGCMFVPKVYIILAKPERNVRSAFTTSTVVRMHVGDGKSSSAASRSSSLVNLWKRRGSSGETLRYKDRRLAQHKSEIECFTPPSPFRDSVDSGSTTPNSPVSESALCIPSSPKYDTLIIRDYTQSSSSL
# Excerpt: Functional Assessment of mGluR5 Antagonism in Cell Lines Expressing mGluR5D
# The properties of the compounds of the invention can be analyzed using standard assays for pharmacological activity. Examples of glutamate receptor assays are well known in the art as described in for example Aramori et al., Neuron 8:757 (1992), Tanabe et al., Neuron 8:169 (1992), Miller et al., J. Neuroscience 15: 6103 (1995), Balazs, et al., J Neurochemistry 69:151 (1997). The methodology described in these publications is incorporated herein by reference. […]
# Cells expressing human mGluR5d as described in WO97/05252 cultured in a mixture of high glucose DMEM with Glutamax (31966-021)(500 mL), 10% dialyzed fetal bovine serum (Hyclone #SH30079.03)(56 mL), 200 μg/mL Hygromycin B (Invitrogen 45-0430, 50 mg/mL)(2.2 mL), 200 μg/mL Zeocin (Invitrogen #R250-01; 100 mg/mL)(1.1 mL) are seeded at a density of 100,000 cells per well on collagen coated clear bottom 96-well plates with black sides and cells were allowed to adhere over night before experiments. […] The fluorescence signal is sampled 50 times at 1-second intervals followed by 3 samples at 5-second intervals immediately after each of the two additions. Responses are measured as the difference between the peak heights of the response to agonist, less the background fluorescence within the sample period. […]
Structure (SMILES),Kp [1],IC50 (human mGluR5d)
"Cn1c(-c2ccc(C(N)=O)cc2)nnc1N1CCC[C@@H]1c1cc(-c2cccc(Cl)c2)on1 [Example 6.1, 4-[5-[(2R)-2-[5-(3-Chlorophenyl)1,2-oxazol-3-yl]pyrrolidin-1-yl]-4-methyl-1,2,4-triazol-3-yl]benzamide]",< 0.01,11 nM
"CNC(=O)c1ccc(-c2nnc(N3CCC[C@@H]3c3cc(-c4cccc(Cl)c4)on3)n2C)cc1 [Example 6.2, 4-[5-[(2R)-2-[5-(3-Chlorophenyl)1,2-oxazol-3-yl]pyrrolidin-1-yl]-4-methyl-1,2,4-triazo1-3-yl]-N-methyl-benzamide]",< 0.01,16 nM
